# Columns and labels:
# Assay type in all cases: cell-based, influenza A virus
# [1] = system: Influenza A/Philippines X-79 (H3N2); conditions: 74,000 nM monovalent LSTc; data not shown
# [2] = system: influenza A/Puerto Rico/8/34 (PR/8, H1N1)
# [3] = system: influenza A/Puerto Rico/8/34 (PR/8, H1N1); design: inhibition of hemagglutination: dose or concentration left out as unconfirmed
substance,measurement,setting,value
sialylneolacto-N-tetraose c [Monovalent LSTc],inhibition of infectivity of Philippines,[1],did not inhibit the infectivity
same,inhibition of PR/8 infection of MDCK cells (FIG. 3A),[2],did not significantly inhibited infection at high concentrations
same,inhibition of infectivity of PR/8,"[2]; 74,000 nM monovalent LSTc",did not inhibit the infectivity
same,inhibition of hemagglutination,[3],did not inhibit hemagglutination
same,HAI Titer,"[3]; four HA units of virus, human RBCs, reciprocal of last liposome dilution giving non-agglutinated RBCs",No inhibition

# From patent US9408890B2, “Multivalent liposome formulations” (priority 2013, dated 2016)
